Experimental data reported in the supplement of paper PMC5908809.

What was measured:
[1] = tested on: normal NK cells expanded with K562-aAPC; experiment: percent inhibition of viability; higher = more inhibition; conditions: 72 h, IL-2 2.5 ng/mL
Procedure: (§1)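 Drug sensitivity and resistance testing on K562-aAPC-expanded normal NK cells: 5 concentrations (10-fold steps over a 10,000-fold range), 72 h at 37 °C, viability by CellTiter-Glo normalised to DMSO and benzethonium chloride controls; DSS from the fitted curve.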

DERL-7 (IL-2 2.5 ng/mL) [2] = experiment: as above; conditions: 72 h
IMC-1 (IL-2 20 ng/mL) [3] = experiment: as above; conditions: 72 h
KAI3 (IL-2 2.5 ng/mL) [4] = experiment: as above; conditions: 72 h
KHYG-1 (IL-2 2.5 ng/mL) [5] = experiment: as above; conditions: 72 h
NK-92 (IL-2 2.5 ng/mL) [6] = experiment: as above; conditions: 72 h
NK-YS (IL-2 2.5 ng/mL) [7] = experiment: as above; conditions: 72 h
NKL (IL-2 2.5 ng/mL) [8] = experiment: as above; conditions: 72 h
SNK-6 (IL-2 2.5 ng/mL) [9] = experiment: as above; conditions: 72 h
YT (IL-2 2.5 ng/mL) [10] = experiment: as above; conditions: 72 h
[11] = tested on: normal primary NK cells, pool 1 (3 donors) (IL-2 2.5 ng/mL); experiment: as above; conditions: 72 h
[12] = tested on: normal primary NK cells, pool 1 (3 donors), resting (IL-2 0 ng/mL); experiment: as above; conditions: 72 h
[13] = tested on: normal primary NK cells, pool 2 (3 donors) (IL-2 2.5 ng/mL); experiment: as above; conditions: 72 h
[14] = tested on: normal primary NK cells, pool 3 (3 donors) (IL-2 2.5 ng/mL); experiment: as above; conditions: 72 h
[15] = tested on: normal NK cells expanded with K562-aAPC; experiment: drug sensitivity score (DSS) (DSS units); higher = more sensitive; extreme values may be limits of the assay; conditions: 72 h; IL-2 2.5 ng/mL
Procedure: as §1

DERL-7 (IL-2 2.5 ng/mL) [16] = experiment: as above; conditions: 72 h
IMC-1 (IL-2 20 ng/mL) [17] = experiment: as above; conditions: 72 h
KAI3 (IL-2 2.5 ng/mL) [18] = experiment: as above; conditions: 72 h
KHYG-1 (IL-2 2.5 ng/mL) [19] = experiment: as above; conditions: 72 h
NK-92 (IL-2 2.5 ng/mL) [20] = experiment: as above; conditions: 72 h
NK-YS (IL-2 2.5 ng/mL) [21] = experiment: as above; conditions: 72 h
NKL (IL-2 2.5 ng/mL) [22] = experiment: as above; conditions: 72 h
SNK-6 (IL-2 2.5 ng/mL) [23] = experiment: as above; conditions: 72 h
YT (IL-2 2.5 ng/mL) [24] = experiment: as above; conditions: 72 h
[25] = tested on: normal primary NK cells, pool 1 (3 donors) (IL-2 2.5 ng/mL); experiment: as above; conditions: 72 h
[26] = tested on: normal primary NK cells, pool 1 (3 donors), resting (IL-2 0 ng/mL); experiment: as above; conditions: 72 h
[27] = tested on: normal primary NK cells, pool 2 (3 donors) (IL-2 2.5 ng/mL); experiment: as above; conditions: 72 h
[28] = tested on: normal primary NK cells, pool 3 (3 donors) (IL-2 2.5 ng/mL); experiment: as above; conditions: 72 h

c1ccc(Cn2c(-c3ccc(OC[C@H](C4CCNCC4)n4c(-c5ccccc5)nc5ccccc54)cc3)nc3ccccc32)cc1 [deltarasin] (max concentration tested 10000 nM)
percent inhibition of viability [%]
Conditions	1 nM	10 nM	100 nM	1000 nM	10000 nM
DERL-7 (IL-2 2.5 ng/mL) [2]	-6.29	6.05	-2.6	15.6	100
IMC-1 (IL-2 20 ng/mL) [3]	-1.41	-1.69	-5.88	-8.23	100
KAI3 (IL-2 2.5 ng/mL) [4]	1.58	6.95	3.87	19.1	99.1
KHYG-1 (IL-2 2.5 ng/mL) [5]	-3.81	-4.92	-1.42	4.21	99.4
NK-92 (IL-2 2.5 ng/mL) [6]	-6.78	-14.8	-7.87	17.8	98.7
NK-YS (IL-2 2.5 ng/mL) [7]	1.38	0.11	0.9	9.01	99.1
NKL (IL-2 2.5 ng/mL) [8]	-1.26	-0.19	0.54	13.1	100
SNK-6 (IL-2 2.5 ng/mL) [9]	-2.79	1.66	-4.21	-2.37	100
YT (IL-2 2.5 ng/mL) [10]	-7.64	-4.86	-5.15	6.64	99
[1]	-6.73	-5.61	-6.67	-4.59	100
[11]	-6.29	-12.3	-0.84	3.6	100
[12]	-29	-22.3	-17.1	22.4	100
[13]	3.52	-1.56	-7.68	10.8	100
[14]	-5.09	-3.8	-9.07	2.9	101

Conditions	drug sensitivity score
DERL-7 (IL-2 2.5 ng/mL) [16]	8.12
IMC-1 (IL-2 20 ng/mL) [17]	5
KAI3 (IL-2 2.5 ng/mL) [18]	8.58
KHYG-1 (IL-2 2.5 ng/mL) [19]	6.1
NK-92 (IL-2 2.5 ng/mL) [20]	8.37
NK-YS (IL-2 2.5 ng/mL) [21]	6.93
NKL (IL-2 2.5 ng/mL) [22]	7.72
SNK-6 (IL-2 2.5 ng/mL) [23]	5.39
YT (IL-2 2.5 ng/mL) [24]	6.49
[15]	5.21
[25]	6.08
[26]	9.04
[27]	7.32
[28]	6.03

Cc1csc(-c2nnc(Nc3ccc(Oc4ncccc4-c4ccnc(N)n4)cc3)c3ccccc23)c1 [AMG-900] (max concentration tested 1000 nM)
percent inhibition of viability [%]
Conditions	0.1 nM	1 nM	10 nM	100 nM	1000 nM
DERL-7 (IL-2 2.5 ng/mL) [2]	-3.26	-1.85	31	70.8	53.9
IMC-1 (IL-2 20 ng/mL) [3]	-5.67	-6.98	18.2	21.9	63.9
KAI3 (IL-2 2.5 ng/mL) [4]	-5.87	-5.96	19.4	20.4	43.4
KHYG-1 (IL-2 2.5 ng/mL) [5]	-2.26	-0.47	44.5	33.3	59.8
NK-92 (IL-2 2.5 ng/mL) [6]	-9.63	-11.2	17.6	27.6	52.6
NK-YS (IL-2 2.5 ng/mL) [7]	-5.77	-3.39	59.6	59.6	71.8
NKL (IL-2 2.5 ng/mL) [8]	-16.8	-17.8	-16.6	-9.7	-5.52
SNK-6 (IL-2 2.5 ng/mL) [9]	15.5	7.4	68.4	57.2	72.8
YT (IL-2 2.5 ng/mL) [10]	-0.32	-0.28	13	16	24.9
[1]	-2.04	-5.9	-2.98	39.7	33
[11]	-4.05	-2.86	-4.93	-3.83	-3.7
[12]	-1.37	-7.12	5.07	10.8	11.6
[13]	-8.07	-6.23	-6.7	-3.83	-5.92
[14]	-7.42	4.77	-7.75	-0.31	-0.94

Conditions	drug sensitivity score
DERL-7 (IL-2 2.5 ng/mL) [16]	17.1
IMC-1 (IL-2 20 ng/mL) [17]	6.18
KAI3 (IL-2 2.5 ng/mL) [18]	5.44
KHYG-1 (IL-2 2.5 ng/mL) [19]	12.6
NK-92 (IL-2 2.5 ng/mL) [20]	6.74
NK-YS (IL-2 2.5 ng/mL) [21]	20.2
NKL (IL-2 2.5 ng/mL) [22]	0
SNK-6 (IL-2 2.5 ng/mL) [23]	23
YT (IL-2 2.5 ng/mL) [24]	3.19
[15]	6.8
[25]	0
[26]	0.61
[27]	0
[28]	0

Cn1c(Nc2ccc(C(F)(F)F)cc2)nc2cc(Oc3ccnc(-c4ncc(C(F)(F)F)[nH]4)c3)ccc21 [RAF265] (max concentration tested 1000 nM)
percent inhibition of viability [%]
Conditions	0.1 nM	1 nM	10 nM	100 nM	1000 nM
DERL-7 (IL-2 2.5 ng/mL) [2]	-3.61	1.74	-1.22	22.4	46.9
IMC-1 (IL-2 20 ng/mL) [3]	-5.99	-2.17	-3.34	-3.31	12
KAI3 (IL-2 2.5 ng/mL) [4]	-0.58	3.63	9.74	26.2	47.5
KHYG-1 (IL-2 2.5 ng/mL) [5]	-7.83	-6.28	-1.05	11.5	34.9
NK-92 (IL-2 2.5 ng/mL) [6]	-17.8	-16.1	-9.27	11.7	59.3
NK-YS (IL-2 2.5 ng/mL) [7]	-5.8	-6.28	-1.83	4.39	18.3
NKL (IL-2 2.5 ng/mL) [8]	2.6	2.04	1.53	9.44	31.3
SNK-6 (IL-2 2.5 ng/mL) [9]	6.03	2.76	3.1	-14.9	44.9
YT (IL-2 2.5 ng/mL) [10]	-4.07	-2.24	1.77	6.57	15.5
[1]	-1.93	-2.9	-2.68	12.1	30.9
[11]	-7.64	17.4	8.25	15.4	23
[12]	-7.48	14.2	11.3	45.5	69.8
[13]	-11	7.1	-0.02	-1.76	19.7
[14]	-13	11.3	6.16	-1.81	8.78

Conditions	drug sensitivity score
DERL-7 (IL-2 2.5 ng/mL) [16]	5.33
IMC-1 (IL-2 20 ng/mL) [17]	0.01
KAI3 (IL-2 2.5 ng/mL) [18]	5.82
KHYG-1 (IL-2 2.5 ng/mL) [19]	3.28
NK-92 (IL-2 2.5 ng/mL) [20]	5.13
NK-YS (IL-2 2.5 ng/mL) [21]	0.99
NKL (IL-2 2.5 ng/mL) [22]	2.71
SNK-6 (IL-2 2.5 ng/mL) [23]	1.66
YT (IL-2 2.5 ng/mL) [24]	0.52
[15]	2.97
[25]	2.83
[26]	10.2
[27]	0.47
[28]	0
